According to paper PMC6881072, “The repositioning of epigenetic probes/inhibitors identifies new anti-schistosomal lead compounds and chemotherapeutic targets” (PLoS Neglected Tropical Diseases, 2019):
Entries after “also recorded” stand apart in the source; their conditions may differ. Read-outs that look alike come from different tables or passages of the source.

Assays:
[1] = test system: S. mansoni schistosomula; assay: In vitro schistosomula screening (Roboworm platform), phenotype and motility; type: cell-based, Schistosoma mansoni; conditions: for schistosomula phenotype by microscopic assessment / hit / activity against schistosomula, single-point screen: 10 μM; for schistosomula phenotype by microscopic assessment / EC50 / hit / activity against schistosomula, single-point screen: 72 h; for SELECTIVITY INDEX Schistosomula Motility: CC50 HepG2 / schistosomula motility EC50; for SELECTIVITY INDEX Schistosomula Phenotype: CC50 HepG2 / schistosomula phenotype EC50; for EC50: Schistosoma mansoni; for hit / activity against schistosomula, single-point screen: hit cut-offs phenotype -0.15, motility -0.35
Procedure: Briefly, 384-well tissue culture plates (Perkin Elmer, cat 6007460), containing 20 μl of Basch medium, were wet-stamped using a Biomek NX^P liquid handling platform (Beckman Coulter, UK) with negative (0.625% dimethyl sulfoxide, DMSO) and positive controls (AUR and PZQ at 10 μM final concentration in 0.625% DMSO) as well as 37 SGC compounds (at 10 μM final concentration in 0.625% DMSO). […] To each pre-loaded well (single concentration or titration screens), a total of 100–120 mechanically transformed schistosomula (in 60 μl) were deposited via a WellMate (Thermo Scientific, UK). Schistosomula/compound co-cultures (80 μl in total) were then incubated at 37°C for 72 h in a humidified atmosphere containing 5% CO2. At 72 h, tissue culture plates (containing schistosomula/compound co-cultures) were imaged under the same conditions (37°C in a humidified atmosphere containing 5% CO2) using an ImageXpressXL high content imager (Molecular Devices, UK) with subsequent images processed for phenotype and motility as previously reported and successfully implemented by us at Aberystwyth University. Single point schistosomula screens (10 μM) were repeated two or three times whereas dose response titrations were performed once. Zˊ values obtained from all schistosomula screens ranged from 0.27–0.48 (mean = 0.40) for phenotype and 0.41–0.56 (mean = 0.48) for motility.

[2] = test system: HepG2 cells; assay: HepG2 cell cytotoxicity, MTT assay; type: cell-based, Human; conditions: 20 h, read-out: CC50 (HepG2) (95% Confidence Intervals)
Procedure: (§1) Human Hepatocyte Carcinoma (HepG2) cells (Sigma Aldrich, UK) were utilized to assess SGC epigenetic probe cell cytotoxicity in the application of the MTT (3-(4,5-dimethylthiazol-2-yl)-2,5-diphenyltetrazolium bromide) assay. Briefly, cells were passaged at 70–80% confluence and seeded (20,000 cells/ 50 μL per well) in a 96-well, black-sided, clear-bottomed falcon plate (Fisher Scientific, UK) with the final plate column (8 wells) being treated as a blank (media only). Following a 24 h incubation (5% CO2, 37°C, humidified), HepG2 cells were then treated with 50 μL of pre-warmed media (37°C) containing SGC EPs/EIs at 200 μM to 0.02 μM (final concentration 100 μM, 10 μM, 1 μM, 0.1 μM and 0.01 μM). Three positive (1% Triton X-100) and negative (1% DMSO) control wells per plate were additionally included.
(§2) After addition of compounds, each plate was then incubated for a further 20 h before application of MTT for assessment of overt compound cytotoxicity using the MTT assay. The MTT assay was read using the POLARstar Omega (BMG LabTech, UK) plate reader at an absorbance of 570 nm. CC50s were calculated in GraphPad Prism.

[3] = HepG2 cell cytotoxicity, MTT assay; type: cell-based, Human; conditions: human, HepG2 cells, read-out: CC50 (HepG2) (95% Confidence Intervals)
Procedure: as §1, §2

[4] = test system: in vitro laid eggs (IVLEs) of adult worm pairs; assay: Vitellocyte and egg volume quantification of in vitro laid eggs (LSCM); type: cell-based, Schistosoma mansoni; conditions: 72 h, n = 10 eggs
Description: Fluorescent microscopic images (10 eggs per treatment) were captured on a Leica TCS SP8 super resolution laser confocal microscope fitted with a 63 X (water immersion) objective using the Leica Application Suite X. Green (egg autofluorescence) fluorescence was visualised with an argon or diode-pumped, solid state (DPSS) laser at 488 nm. DAPI was visualised using a 405 nm blue diode laser. The number of vitellocytes (DAPI^+ cells) and overall volume (mapped by the green autofluorescence) for individual eggs were calculated using IMARIS 7.3 software (Bitplane).

[5] = cited from earlier work
[6] = test system: adult male and female schistosome pairs; assay: In vitro adult schistosome screening (WHO/TDR motility, egg counts); type: cell-based, Schistosoma mansoni; conditions: for adult worm motility and IVLE production: 3.13 μM and 6.25 μM, vs DMSO; for adult worm motility and IVLE production / EC50: 72 h; for SELECTIVITY INDEX Adult Females: CC50 HepG2 / adult female EC50; for SELECTIVITY INDEX Adult Males: CC50 HepG2 / adult male EC50; for EC50: Schistosoma mansoni
Procedure: In vitro screening was replicated three times on different dates to account for any biological variation. Briefly three adult worm pairs/well (48-well tissue culture plate format) were placed into DMEM (Gibco, Paisley, UK) supplemented with 10% (v/v) FCS (Gibco, Paisley, UK), 1% (v/v) L-glutamine (Gibco, Paisley, UK) and an antibiotic mixture (150 Units/ml penicillin and 150 μg/ml streptomycin; Gibco, UK). DMSO (0.5% negative control), AUR (10 μM concentration in 0.5% DMSO; positive control) and two-fold titrations of SGC compounds (50 μM– 6.25 μM or 50 μM– 0.05 μM; in 0.5% DMSO max) were added, and together, these adult worm/compound co-cultures were incubated at 37°C for 72 h in a humidified atmosphere containing 5% CO2. Following compound incubation, WHO/TDR readouts of adult worm motility, abundance of H3K36me2 (LLY-507 and BAY-598 treated worms only) in histone extracts and egg counts/well were recorded at 72 h.

[7] = test system: miracidia; set-up: method as in Roquis et al., 2018; conditions: ref Roquis et al., 2018; cited from earlier work
[8] = test system: H3K36me2; assay: H3K36me2 detection in adult worm histone extracts; type: cell-based, Schistosoma mansoni; conditions: adult schistosome pairs, 72 h, vs DMSO
Procedure: LLY-507 (6.25 μM), BAY-598 (25 μM) or siSmp_000700 treated male and female worms (alongside DMSO or siLuc controls; 21 individuals per condition) were homogenized with a TissueLyser (Qiagen) and total histones extracted using the EpiQuik^TM Total Histone Extraction Kit (Epigentek). Levels of H3K36me2 in adult histone extracts were measured using the EpiQuik^TM Global Di-Methyl Histone H3-K36 Quantification Kit (Fluorimetric, Epigentek). Technical duplicates of three biological replicates of each treatment were analysed according to the manufacturer’s instructions. Fluorescent readings (530EX/590EM nm) were obtained using a POLARstar Omega (BMG Labtech, UK) microtiter plate reader. Fluorescent values of the samples were corrected by subtracting the fluorescent readings of the blank (buffer only, provided in the kit). The mean of the adjusted control values (DMSO for LLY-507/BAY-598 treated worms and siLuc for siSmp_000700 treated worms) was set at 100% H3K36me2 and the standard deviation (SD) was calculated from the normalised values.

[9] = two-fold titration 10 μM–0.625 μM, single replicate, approximate, read-out: SCHISTOSOMULA EC50 Motility
[10] = two-fold titration 10 μM–0.625 μM, single replicate, approximate, read-out: SCHISTOSOMULA EC50 Phenotype
[11] = motility, adult females, read-out: ADULT EC50 (95% Confidence Intervals) Females
[12] = motility, adult males, read-out: ADULT EC50 (95% Confidence Intervals) Males

Row | Structure (SMILES) | SELECTIVITY INDEX Schistosomula Motility [1] | SELECTIVITY INDEX Schistosomula Phenotype [1] | EC50 [1, 10] [µM] | CC50 at 20 h [3] [µM] | SELECTIVITY INDEX Adult Females [6] | SELECTIVITY INDEX Adult Males [6] | EC50 [6, 11] [µM] | EC50 [6, 12] [µM] | hit / activity against schistosomula, single-point screen [1] | other results
1 | CCOC(=O)CCNc1cc(N2CCc3ccccc3CC2)nc(-c2ccccn2)n1 [GSK-J4, ethyl 3-[[2-pyridin-2-yl-6-(1,2,4,5-tetrahydro-3-benzazepin-3-yl)pyrimidin-4-yl]amino]propanoate] | 16.55 | 18.62 | 5.37 | > 50 | 8.78 | 25.49 | 11.4 | 3.92 | – | schistosomula phenotype by microscopic assessment [1]: phenotypes comparable to auranofin; EC50 [1, 9]: 6.04 µM; CC50 [2]: > 100 µM; number of vitellocytes per egg (packaging into IVLEs) ([4]; 0.2 μM): significantly inhibited the packaging; overall egg volume ([4]; 0.2 μM): no difference; cell permeability [5]: cell-permeable; adult worm motility and IVLE production [6]: led to adult worm motility and IVLE deficiencies
2 | CCCc1cc(C)[nH]c(=O)c1CNC(=O)c1cc(-c2ccnc(N3CCN(C)CC3)c2)cc2c1cnn2C(C)C [GSK343, N-[(1,2-Dihydro-6-methyl-2-oxo-4-propyl-3-pyridinyl)methyl]-1-(1-methylethyl)-6-[2-(4-methyl-1-piperazinyl)-4-pyridinyl]-1H-indazole-4-carboxamide, N-[(6-Methyl-2-oxo-4-propyl-1,2-dihydropyridin-3-yl)methyl]-6-[2-(4-methylpiperazin-1-yl)pyridin-4-yl]-1-(propan-2-yl)-1H-indazole-4-carboxamide] | – | 9.24 | 3.17 | 29.2 | 1.16 | 1.17 | 25.3 | 25 | identified as a hit | miracidia to sporocyst transformation [7]: completely block
3 | CCN(C(=O)CO)[C@H]1CN(C(=NC#N)Nc2cccc(OC(F)F)c2)N=C1c1ccc(Cl)c(Cl)c1 [BAY-598, (S)-N-[1-{N′-Cyano-N-[3-(difluoromethoxy)phenyl]carbamimidoyl}-3-(3,4-dichlorophenyl)-4,5-dihydro-1H-pyrazol-4-yl]-N-ethyl-2-hydroxyacetamide] | – | 10.40 | 4.81 | > 50 | 3.02 | 2.24 | 16.5 | 22.4 | are hits against schistosomula; also recorded: both active against schistosomula | reduction in H3K36me2 ([8]; 25 μM): 23%
4 | O=C(O)CCNc1cc(N2CCc3ccccc3CC2)nc(-c2ccccn2)n1 [GSK-J1] | – | – | – | – | – | – | – | – | None of these chemotype controls demonstrated anti-schistosomula activity | number of vitellocytes per egg (packaging into IVLEs) ([4]; 6.25 μM): did not; overall egg volume ([4]; 6.25 μM): no difference; cell permeability ([5]; not told): cell impermeable; adult worm motility and IVLE production [6]: did not substantially alter these phenotypes
5 | Cc1cn(CCN2CCN(c3ccccc3-c3cc(C#N)cc(C(=O)NCCCN4CCCC4)c3)CC2)c2ccccc12 [LLY-507, 5-(2-(4-(2-(9-methyl-7-aza-bicyclo[4.3.0]nona-1(6),2,4,8-tetraen-7-yl)-ethyl)-piperazin-1-yl)-phenyl)-3-((3-(pyrrolidin-1-yl)-propylamino)-formyl)-benzonitrile] | 8.47 | 8.24 | 2.88 | 23.8 | 3.13 | 2.55 | 7.59 | 9.32 | are hits against schistosomula; also recorded: both active against schistosomula | schistosomula phenotype by microscopic assessment [1]: phenotypes comparable to auranofin; EC50 [1, 9]: 2.81 µM; reduction in H3K36me2 ([8]; 6.25 μM): 25%
6 | COc1ccccc1C(=O)Nc1cc2c(cc1N1CCCC1)n(C)c(=O)n2C [PFI-4, N-(1,3-dimethyl-2-oxo-6-(pyrrolidin-1-yl)-2,3-dihydro-1H-benzo[d]imidazol-5-yl)-2-methoxybenzamide] | 19.52 | 19.18 | – | > 50 | 3.20 | 3.33 | – | – | – | EC50 ([1]; read-out: SCHISTOSOMULA EC50 Motility): 5.12 µM; EC50 ([1]; read-out: SCHISTOSOMULA EC50 Phenotype): 5.22 µM; CC50 [2]: > 100 µM; EC50 ([6]; read-out: ADULT EC50 (95% Confidence Intervals) Females): 31.2 µM; EC50 ([6]; read-out: ADULT EC50 (95% Confidence Intervals) Males): 30.1 µM
7 | COc1cc2c(cc1OCCCN1CCCC1)N=C(N)C21CCC1 [A-366, 5'-Methoxy-6'-[3-(1-pyrrolidinyl)propoxy]spiro[cyclobutane-1,3'-indol]-2'-amine] | – | – | – | – | – | – | – | – | – | miracidia to sporocyst transformation [7]: completely block
